From patent publication US11999794B2, “Human mesothelin chimeric antigen receptors and uses thereof” (Novartis AG, priority 2013, dated 2024)
Marks after values point to notes of the source that are not given here.

Tests used:
[1] = test system: A/H1N1 strain A/New Jersey/8/76 and A/H3N2 strain A/Victoria/361/11; design: species or system human; details: in vivo
[2] = test system: P70 S6K; experiment: Percent inhibition of P70 S6K activity in HeLa cells in vitro; details: concentrations from 30 pM to 4 nM
[3] = RAD001 levels in blood (trough)
[4] = test system: A/H3N2 strain A/Victoria/361/11; experiment: HI titers and seroconversion, heterologous strain; assay type: in vivo, human; details: for Percentage of subjects who seroconvert to heterologous strain A/H3N2 A/Victoria/361/11: 4 weeks after seasonal influenza vaccination, odds ratio vs placebo p < 0.05
[5] = test system: PD-1; experiment: Immunophenotyping of PBMC (FACS); assay type: in vivo, human; details: for decrease in PD-1 positive CD4 T cells compared to placebo / decrease in PD-1 positive CD8 T cells compared to placebo: adjusted for baseline
[6] = biological target: T1, hMSLN296-588 (Homo sapiens, UniProt Q13421, N388Q/N488Q/N515Q); experiment: Hydrogen-deuterium exchange mass spectrometry epitope mapping; assay type: binding; details: amino acid position 297 to 464
T1 construct: secretion signal […]; made in house; host or cells: Expi293 (alone, or co-expressed with scFv M5)
From the text: Hydrogen-deuterium exchange (HDx) in combination with mass spectrometry (MS) (Woods V L, Hamuro Y (2001) High Resolution, High-Throughput Amide Deuterium Exchange-Mass Spectrometry (DXMS) Determination of Protein Binding Site Structure and Dynamics: Utility in Pharmaceutical Design. J. Cell. Biochem. Supp.; 84(37): 89-98.) was used to map the putative binding site of scFv antibodies M5 and SS1 on human mesothelin(296-588), referred to herein as hMSLN296-588 (SEQ ID No 278). In HDx, exchangeable amide hydrogens of proteins are replaced by deuterium. This process is sensitive to protein structure/dynamics and solvent accessibility and, therefore, able to report on locations that undergo a decrease in deuterium uptake upon ligand binding.
HDx/MS experiments were performed using methods similar to those described in the literature (Chalmers M J, Busby S A, Pascal B D, He Y, Hendrickson C L, Marshall A G, Griffin P R (2006) Probing protein ligand interactions by automated hydrogen/deuterium exchange mass spectrometry. Anal. Chem.; 78(4): 1005-1014.Chalmers, 2006). The experiments were performed on a Waters HDx/MS platform, which included a LEAP autosampler, nanoACQUITY UPLC, and Synapt G2 mass spectrometer. […]

[7] = Size exclusion chromatography (oligomerization state of expressed scFvs); assay type: physicochemical; details: purified scFv
Experimental: Size exclusion chromatography was performed to determine the oligomerization states of the expressed scFvs. 25 μg each was injected onto a TSKGel Super SW3000 4.6 mm×300 mm column (Tosoh Bioscience) heated to 35° C. The scFvs were eluted at 0.3 mL/min in 750 mM arginine, 1 mM EDTA, 20 mM sodium phosphate, 250 mM sodium chloride, pH 7.2; the UV absorbance was monitored at 280 nm.

T1 sequence (Q13421 with tags, fused parts or gaps N388Q/N488Q/N515Q): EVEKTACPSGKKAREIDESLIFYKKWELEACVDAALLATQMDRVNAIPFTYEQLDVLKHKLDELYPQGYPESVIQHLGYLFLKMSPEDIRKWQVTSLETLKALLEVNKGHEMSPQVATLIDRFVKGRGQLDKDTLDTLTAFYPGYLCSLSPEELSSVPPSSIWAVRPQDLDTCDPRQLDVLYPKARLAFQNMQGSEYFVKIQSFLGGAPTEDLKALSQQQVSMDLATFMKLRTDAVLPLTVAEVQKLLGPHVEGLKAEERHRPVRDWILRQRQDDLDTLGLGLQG

Molecule	increase in HI GMT ratios for the heterologous strains [1]	seroconversion rates for the heterologous strains [1]	effect on P70 S6K activity in cell lines [2]	average trough level ([3]; 0.5 mg daily)	average trough level ([3]; 5 mg weekly)	average trough level ([3]; 20 mg weekly)	trough level of study regimens relative to approved regimens ([3]; in vivo)	increase in seroconversion rate, H3N2 heterologous strain ([4]; 5 and 20 mg weekly dosing cohorts)	Percentage of subjects who seroconvert to heterologous strain A/H3N2 A/Victoria/361/11 ([4]; RAD001 5 mg weekly)	Percentage of subjects who seroconvert to heterologous strain A/H3N2 A/Victoria/361/11 ([4]; RAD001 20 mg weekly)	H3N2 seroconversion rate, heterologous strain ([4]; pooled RAD001 cohorts, p=0.007 vs placebo)	percentage of PD-1 positive CD4 and CD8 cells compared to placebo cohorts ([5]; in vivo)	decrease in PD-1 positive CD4 T cells compared to placebo ([5]; week 6, pooled cohort (n=84))	decrease in PD-1 positive CD8 T cells compared to placebo ([5]; week 6, pooled cohort (n=84))	decrease in PD-1 positive CD4 T cells compared to placebo ([5]; week 12, pooled cohort)	decrease in PD-1 positive CD8 T cells compared to placebo ([5]; week 12, pooled cohort)	change in PD-1-positive CD8 T cells compared to placebo ([5]; week 12, 0.5 mg/Day, 5 mg/Week and 20 mg/Week cohorts)	mesothelin peptides significantly protected from deuterium uptake [6]	% Monomer (SEC) [7]
CO[C@H]1C[C@@H]2CC[C@@H](C)[C@@](O)(O2)C(=O)C(=O)N2CCCC[C@H]2C(=O)O[C@H]([C@H](C)C[C@@H]2CC[C@@H](OCCO)[C@H](OC)C2)CC(=O)[C@H](C)/C=C(\C)[C@@H](O)[C@@H](OC)C(=O)[C@H](C)C[C@H](C)/C=C/C=C/C=C/1C [RAD001, (1R,9S,12S,15R,16E,18R,19R,21R,23 S,24E,26E,28E,30S,32S,35R)-1,18-dihydroxy-12-{(1R)-2-[(1 S,3R,4R)-4-(2-hydroxyethoxy)-3-methoxycyclohexyl]-1-methylethyl}-19,30-dimethoxy-15,17,21,23,29,35-hexamethyl-11,36-dioxa-4-aza-tricyclo[30.3.1.04,9]hexatriaconta-16,24,26,28-tetraene-2,3,10,14,20-pentaone]	higher in the RAD001 as compared to placebo cohorts	higher in the RAD001 as compared to placebo cohorts	partially inhibited P70 S6K activity	0.9 ng/mL	below detection limits	0.7 ng/mL	3-20 fold lower	statistically significant	39%*	40% *	39%	lower in the RAD001 as compared to placebo cohorts	30.2%	37.4%	32.7%	41.4%	−43.3-−38.5%	–	–
M5: human anti-mesothelin scFv SEQ ID NO: 43; full CAR SEQ ID NO: 67 (protein) scFv: QVQLVQSGAEVEKPGASVKVSCKASGYTFTDYYMHWVRQAPGQGLEWMGWINPNSGGTNYAQKFQGRVTMTRDTSISTAYMELSRLRSDDTAVYYCASGWDFDYWGQGTLVTVSSGGGGSGGGGSGGGGSGGGGSDIVMTQSPSSLSASVGDRVTITCRASQSIRYYLSWYQQKPGKAPKLLIYTASILQNGVPSRFSGSGSGTDFTLTISSLQPEDFATYYCLQTYTTPDFGPGTKVEIK	–	–	–	–	–	–	–	–	–	–	–	–	–	–	–	–	–	no protection	82%
